According to publication PMC10065799, “High-throughput profiling of sequence recognition by tyrosine kinases and SH2 domains using bacterial peptide display” (eLife, 2023):

Assays:
c-Src SH2 domain = c-Src SH2 domain (Homo sapiens, UniProt P12931); assay: pTyr-Var library SH2 domain screen with SH2-dynabeads (enrichment scores); conditions: mean of log2 enrichment of reference peptide, R1-R3; sheet c-Src
Fes = assay: pTyr-Var library bacterial peptide display kinase screen (enrichment scores); assay type: biochemical; conditions: mean of log2 of enrichment over R1-R6
c-Abl kinase domain [1] = target: T1, c-Abl kinase domain (Mus musculus, UniProt P00520); assay: as above; assay type: biochemical; conditions: for c-Abl mean of log2(enrichment): mean of log2 of enrichment over R1-R4; for c-Abl enrich. R1 / c-Abl enrich. R3 / c-Abl enrich. R4: pTyr-Var library, enrichment score; for c-Abl enrich. R1: replicate 1; for c-Abl enrich. R3: replicate 3; for c-Abl enrich. R4: replicate 4
T1 sequence (P00520 242-493 limits assumed): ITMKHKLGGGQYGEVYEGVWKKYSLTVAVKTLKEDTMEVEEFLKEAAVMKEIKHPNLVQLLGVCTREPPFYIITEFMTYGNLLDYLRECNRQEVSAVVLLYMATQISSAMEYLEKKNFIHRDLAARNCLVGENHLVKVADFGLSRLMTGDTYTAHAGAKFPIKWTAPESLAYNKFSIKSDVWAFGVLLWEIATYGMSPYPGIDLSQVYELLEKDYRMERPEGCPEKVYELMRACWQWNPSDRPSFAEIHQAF

FGFR1 kinase domain = assay: as above; assay type: biochemical, human; conditions: n = 5
Jak2 = assay: as above; assay type: biochemical, human; conditions: for Jak2 mean of log2(enrichment): mean of log2 of enrichment over R1-R3; for Jak2 enrich. R1 / Jak2 enrich. R3: pTyr-Var library, enrichment score; for Jak2 enrich. R1: replicate 1; for Jak2 enrich. R3: replicate 3
Grb2 SH2 domain = assay: pTyr-Var library SH2 domain screen with SH2-dynabeads (enrichment scores); conditions: R1-R3
AncSZ kinase domain = assay: pTyr-Var library bacterial peptide display kinase screen (enrichment scores); assay type: biochemical; conditions: for AncSZ mean of log2(enrichment): mean of log2 of enrichment over R1-R5; for AncSZ enrich. R1 / AncSZ enrich. R3 / AncSZ enrich. R4 / AncSZ enrich. R5: pTyr-Var library, enrichment score; for AncSZ enrich. R1: replicate 1; for AncSZ enrich. R3: replicate 3; for AncSZ enrich. R4: replicate 4; for AncSZ enrich. R5: replicate 5
FGFR3 kinase domain = assay: as above; assay type: biochemical, human; conditions: n = 5
SHP2 C-SH2 domain = assay: pTyr-Var library SH2 domain screen with SH2-dynabeads (enrichment scores); conditions: R1-R3
MERTK kinase domain = assay: pTyr-Var library bacterial peptide display kinase screen (enrichment scores); assay type: biochemical, human; conditions: for mean of log2(reference): mean of log2 enrichment of reference peptide, n = 4
Fyn kinase domain = assay: as above; assay type: biochemical, human; conditions: for Fyn mean of log2(enrichment): mean of log2 of enrichment over R1-R4; for Fyn enrich. R1 / Fyn enrich. R3 / Fyn enrich. R4: pTyr-Var library, enrichment score; for Fyn enrich. R1: replicate 1; for Fyn enrich. R3: replicate 3; for Fyn enrich. R4: replicate 4
EPHB2 kinase domain = assay: as above; assay type: biochemical, human; conditions: mean of log2 enrichment of reference peptide, n = 4
EPHB1 kinase domain = assay: as above; assay type: biochemical, human; conditions: mean of log2 enrichment of reference peptide, n = 4
Hck kinase domain = assay: as above; assay type: biochemical, human; conditions: for Hck mean of log2(enrichment): mean of log2(variant) / mean of log2(reference), R1-R4; for Hck enrich. R1 / Hck enrich. R3 / Hck enrich. R4: pTyr-Var library, enrichment score; for Hck enrich. R1: replicate 1; for Hck enrich. R3: replicate 3; for Hck enrich. R4: replicate 4
c-Src kinase domain [2] = target: T2, c-Src kinase domain (Homo sapiens, UniProt P12931); assay: as above; assay type: biochemical; conditions: for c-Src mean of log2(enrichment): mean of log2 of enrichment over R1-R4; for c-Src enrich. R1 / c-Src enrich. R3 / c-Src enrich. R4: pTyr-Var library, enrichment score; for c-Src enrich. R1: replicate 1; for c-Src enrich. R3: replicate 3; for c-Src enrich. R4: replicate 4
Fer kinase domain = assay: as above; assay type: biochemical, mouse; conditions: for Fer mean of log2(enrichment): mean of log2 of enrichment over R1-R4; for Fer enrich. R1 / Fer enrich. R3 / Fer enrich. R4: pTyr-Var library, enrichment score; for Fer enrich. R1: replicate 1; for Fer enrich. R3: replicate 3; for Fer enrich. R4: replicate 4
c-Abl kinase domain [3] = target: T1, c-Abl kinase domain; assay: ADP-Quest continuous fluorimetric kinase assay (Michaelis-Menten parameters and initial rates); assay type: biochemical; conditions: peptide 100 μM, kinase 10–50 nM; Figure 2C
c-Src kinase domain [4] = target: T2, c-Src kinase domain; assay: as above; assay type: biochemical
[5] = ADP-Quest assay, c-Src kinase domain 10 nM, 100 μM ATP, 37 °C, three to five replicates, error = standard error of global Michaelis-Menten fit

| Substance | mean of log2(reference) (c-Src SH2 domain) | Fes mean of log2(enrichment) (Fes) | c-Abl mean of log2(enrichment) (c-Abl kinase domain [1]) | c-Abl enrich. R1 (c-Abl kinase domain [1]) | c-Abl enrich. R3 (c-Abl kinase domain [1]) | c-Abl enrich. R4 (c-Abl kinase domain [1]) | mean of log2(reference) (FGFR1 kinase domain) | Jak2 mean of log2(enrichment) (Jak2) | Jak2 enrich. R1 (Jak2) | Jak2 enrich. R3 (Jak2) | mean of log2(reference) (Grb2 SH2 domain) | AncSZ mean of log2(enrichment) (AncSZ kinase domain) | AncSZ enrich. R1 (AncSZ kinase domain) | AncSZ enrich. R3 (AncSZ kinase domain) | AncSZ enrich. R4 (AncSZ kinase domain) | AncSZ enrich. R5 (AncSZ kinase domain) | mean of log2(reference) (FGFR3 kinase domain) | mean of log2(reference) (SHP2 C-SH2 domain) | mean of log2(reference) (MERTK kinase domain) | Fyn mean of log2(enrichment) (Fyn kinase domain) | other results |
| --- | --- | --- | --- | --- | --- | --- | --- | --- | --- | --- | --- | --- | --- | --- | --- | --- | --- | --- | --- | --- | --- |
| TTGLIYIGSHD [AASDH_Y870] | -0.7916 | -0.4107 | -1.045 | 0.5107 | 0.4932 | 0.3951 | -1.189 | -0.485 | 0.7507 | 0.724 | 0.04072 | -0.4681 | 0.7227 | 0.6145 | 0.7736 | 0.7032 | -0.6492 | -0.7271 | -1.687 | -1.48 | Fyn enrich. R1 (Fyn kinase domain): 0.4689; Fyn enrich. R3 (Fyn kinase domain): 0.3674; Fyn enrich. R4 (Fyn kinase domain): 0.214; mean of log2(reference) (EPHB2 kinase domain): -0.8783; mean of log2(reference) (EPHB1 kinase domain): -0.5976; Hck mean of log2(enrichment) (Hck kinase domain): 0.4597; Hck enrich. R1 (Hck kinase domain): 0.6399; Hck enrich. R3 (Hck kinase domain): 0.4036; Hck enrich. R4 (Hck kinase domain): 0.2897; c-Src mean of log2(enrichment) (c-Src kinase domain [2]): -1.294; c-Src enrich. R1 (c-Src kinase domain [2]): 0.3921; c-Src enrich. R3 (c-Src kinase domain [2]): 0.3853; c-Src enrich. R4 (c-Src kinase domain [2]): 0.4379; Fer mean of log2(enrichment) (Fer kinase domain): -1.298; Fer enrich. R1 (Fer kinase domain): 0.3587; Fer enrich. R3 (Fer kinase domain): 0.5035; Fer enrich. R4 (Fer kinase domain): 0.5633 |
| Ac-GPDECIYDMFPFKKKG-NH2 [Src Consensus, c-Src consensus substrate peptide from X5-Y-X5 screen] | – | – | – | – | – | – | – | – | – | – | – | – | – | – | – | – | – | – | – | – | phosphorylation of consensus peptide by c-Abl (initial rate relative to cognate consensus) (c-Abl kinase domain [3]): efficiently phosphorylated; Km (c-Src kinase domain [4]; [5]): 196 ± 38 µM; kcat (c-Src kinase domain [4]; [5]): 4.9±0.4 s^–1; phosphorylation of consensus peptide by c-Src (initial rate relative to cognate consensus) (c-Src kinase domain [4]; high concentration: peptide 100 μM, kinase 10–50 nM, Figure 2C): selective |
| GMAHNYRNSSQ [AASS_Y188] | -1.119 | -1.191 | -1.694 | 0.3586 | 0.2586 | 0.2717 | -1.437 | -1.234 | 0.5584 | 0.3848 | -0.5728 | -0.7891 | 0.6022 | 0.4422 | 0.5318 | 0.777 | -1.231 | -0.8121 | -1.316 | -1.328 | ref. mean (MERTK kinase domain; pTyr-Var library, reference peptide enrichment, mean of n = 4): 0.4184; Fyn enrich. R1 (Fyn kinase domain): 0.4068; Fyn enrich. R3 (Fyn kinase domain): 0.5016; Fyn enrich. R4 (Fyn kinase domain): 0.6969; mean of log2(reference) (EPHB2 kinase domain): -1.13; mean of log2(reference) (EPHB1 kinase domain): -2.084; Hck mean of log2(enrichment) (Hck kinase domain): 0.4135; Hck enrich. R1 (Hck kinase domain): 0.473; Hck enrich. R3 (Hck kinase domain): 0.3667; Hck enrich. R4 (Hck kinase domain): 0.3337; c-Src mean of log2(enrichment) (c-Src kinase domain [2]): -1.404; c-Src enrich. R1 (c-Src kinase domain [2]): 0.429; c-Src enrich. R3 (c-Src kinase domain [2]): 0.2705; c-Src enrich. R4 (c-Src kinase domain [2]): 0.4776; Fer mean of log2(enrichment) (Fer kinase domain): -1.39; Fer enrich. R1 (Fer kinase domain): 0.41; Fer enrich. R3 (Fer kinase domain): 0.4208; Fer enrich. R4 (Fer kinase domain): 0.3128 |
